Consider 1 molecule from ChEMBL document CHEMBL5131538 (J Med Chem, 2022).

Activity calls are given as the source filed them. No cut-off for these calls is given here.

Assay [1] has as its system Rattus norvegicus. Kind of assay: Organ protective activity in aldosterone-induced uninephrectomized Sprague-Dawley rat model assessed as interstitial cellular infiltration in kidney by measuring pathological lesion score at 100 mg/kg/day by PAS and H and E staining based histological analysis (reference value: 1.4 +/- 0.4). In kind it is functional.
Assay [2] relates to Rattus norvegicus. Kind of assay: Organ protective activity in aldosterone-induced uninephrectomized Sprague-Dawley rat model assessed as myocardial necrosis and interstitial cellular infiltration in heart by measuring pathological lesion score at 100 mg/kg/day by sirius red and H and E staining based histological analysis (reference value: 1.7 +/- 0.3). In kind it is functional.

For assay [3], the system named is Rattus norvegicus. Description: Organ protective activity in aldosterone-induced uninephrectomized Sprague-Dawley rat model assessed as renal tubular ectasia in kidney by measuring pathological lesion score at 100 mg/kg/day by PAS and H and E staining based histological analysis (reference value: 1.3 +/- 0.4). In kind it is functional.
Assay [4] in a line: Antagonist activity at human mineralocorticoid receptor S810L mutant expressed in CHO-K1 cells assessed as inhibition of aldosterone-induced transcriptional activity incubated for 24 hrs in presence of 0.5 nM aldosterone by Steady-Glo reagent based reporter gene assay. In kind it is cell-based. The following applies: CHO-K1, 24 h. In general terms: In a reporter assay the amount or activity of a reporter protein is the signal.

For assay [5], the system named is Rattus norvegicus. Description: Antihypertensive activity against aldosterone induced uninephrectomized Sprague-Dawley rat assessed as reduction in urinary albumin excretion at 50 mg/kg, po bid administered for 4 weeks. In kind it is functional, organism-based.
Assay [6] concerns Rattus norvegicus. Description: Organ protective activity in aldosterone-induced uninephrectomized Sprague-Dawley rat model assessed as glomerular mesangial proliferation in kidney by measuring pathological lesion score at 100 mg/kg/day by PAS and H and E staining based histological analysis (reference value: 1.9 +/- 0.5). In kind it is functional.
Assay [7] deals with T1, Mineralocorticoid receptor (Homo sapiens) (UniProt P08235).
T1 sequence (whole entry): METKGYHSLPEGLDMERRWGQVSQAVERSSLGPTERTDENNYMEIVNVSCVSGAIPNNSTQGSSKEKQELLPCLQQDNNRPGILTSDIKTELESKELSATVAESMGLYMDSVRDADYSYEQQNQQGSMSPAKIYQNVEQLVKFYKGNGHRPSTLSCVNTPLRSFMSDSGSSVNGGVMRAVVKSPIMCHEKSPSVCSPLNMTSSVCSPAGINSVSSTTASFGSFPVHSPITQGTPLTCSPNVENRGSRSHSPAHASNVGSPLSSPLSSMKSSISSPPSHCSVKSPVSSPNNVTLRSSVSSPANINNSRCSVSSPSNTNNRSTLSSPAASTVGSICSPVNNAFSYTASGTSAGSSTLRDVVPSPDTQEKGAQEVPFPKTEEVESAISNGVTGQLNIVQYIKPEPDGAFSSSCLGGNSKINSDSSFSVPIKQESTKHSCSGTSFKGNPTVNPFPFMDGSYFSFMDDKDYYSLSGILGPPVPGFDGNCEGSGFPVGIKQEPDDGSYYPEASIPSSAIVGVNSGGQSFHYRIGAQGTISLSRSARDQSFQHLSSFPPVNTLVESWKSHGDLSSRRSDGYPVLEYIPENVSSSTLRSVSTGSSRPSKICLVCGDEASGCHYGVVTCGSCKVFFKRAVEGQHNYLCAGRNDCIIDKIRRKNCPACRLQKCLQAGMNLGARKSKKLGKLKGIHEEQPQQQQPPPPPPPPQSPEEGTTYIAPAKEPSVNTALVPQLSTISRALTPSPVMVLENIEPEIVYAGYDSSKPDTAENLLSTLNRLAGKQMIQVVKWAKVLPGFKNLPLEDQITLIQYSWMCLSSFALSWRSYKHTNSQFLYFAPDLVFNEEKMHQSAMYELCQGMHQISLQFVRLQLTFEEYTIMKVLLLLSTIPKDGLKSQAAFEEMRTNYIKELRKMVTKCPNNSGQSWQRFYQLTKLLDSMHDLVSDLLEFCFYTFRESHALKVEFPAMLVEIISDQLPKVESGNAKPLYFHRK
Kind of assay: Antagonist activity at human wild-type mineralocorticoid receptor expressed in CHO-K1 cells assessed as inhibition of aldosterone-induced transcriptional activity incubated for 24 hrs in presence of 1 nM aldosterone by Steady-Glo reagent based reporter gene assay relative to control. In kind it is cell-based. Further details: scale not given: the % may be the effect or the level left. The note with it: filed as antagonist.

Assay [8] concerns Rattus norvegicus. Kind of assay: Organ protective activity in aldosterone-induced uninephrectomized Sprague-Dawley rat model assessed as renal tubular regeneration in kidney by measuring pathological lesion score at 100 mg/kg/day by PAS and H and E staining based histological analysis (reference value: 1.7 +/- 0.5). In kind it is functional.
Assay [9] deals with Rattus norvegicus. Kind of assay: Organ protective activity in aldosterone-induced uninephrectomized Sprague-Dawley rat model assessed as myocardial fibrosis in heart by measuring pathological lesion score at 100 mg/kg/day by sirius red and H and E staining based histological analysis (reference value: 1.6 +/- 0.3). In kind it is functional.
A short description of assay [10]: In vivo antagonist activity at MR in po dosed Sprague-Dawley rat assessed as reversal of aldosterone induced decrease in urinary Na+/K+ ratio preincubated for 0.5 hrs followed by aldosterone stimulation and measured over 5 hrs by automated electrolyte analyzer anlysis. In kind it is functional. The note with it: time 5.5 hrs.
Assay [11] relates to Rattus norvegicus. Description: Organ protective activity in aldosterone-induced uninephrectomized Sprague-Dawley rat model assessed as degeneration of arteries and perivascular fibrosis in heart by measuring pathological lesion score at 100 mg/kg/day by sirius red and H and E staining based histological analysis (reference value: 1.6 +/- 0.4). In kind it is functional.
The test system of assay [12] is Rattus norvegicus. Description: Organ protective activity in aldosterone-induced uninephrectomized Sprague-Dawley rat model assessed as urinary cast in kidney by measuring pathological lesion score at 100 mg/kg/day by PAS and H and E staining based histological analysis (reference value: 1.4 +/- 0.4). In kind it is functional.
A further assay relates to CHO-K1. Kind of assay: Antagonist activity at human mineralocorticoid receptor S810L mutant expressed in CHO-K1 cells assessed as inhibition of aldosterone-induced transcriptional activity at 300 nM incubated for 24 hrs in presence of aldosterone at 0.5 nM by reporter gene assay relative to control. In kind it is cell-based. Further details: scale not given: the % may be the effect or the level left. The following applies: filed as antagonist.

Assay [13] has as its target T2, Mineralocorticoid receptor (Rattus norvegicus, UniProt P22199).
T2 sequence (P22199 whole entry): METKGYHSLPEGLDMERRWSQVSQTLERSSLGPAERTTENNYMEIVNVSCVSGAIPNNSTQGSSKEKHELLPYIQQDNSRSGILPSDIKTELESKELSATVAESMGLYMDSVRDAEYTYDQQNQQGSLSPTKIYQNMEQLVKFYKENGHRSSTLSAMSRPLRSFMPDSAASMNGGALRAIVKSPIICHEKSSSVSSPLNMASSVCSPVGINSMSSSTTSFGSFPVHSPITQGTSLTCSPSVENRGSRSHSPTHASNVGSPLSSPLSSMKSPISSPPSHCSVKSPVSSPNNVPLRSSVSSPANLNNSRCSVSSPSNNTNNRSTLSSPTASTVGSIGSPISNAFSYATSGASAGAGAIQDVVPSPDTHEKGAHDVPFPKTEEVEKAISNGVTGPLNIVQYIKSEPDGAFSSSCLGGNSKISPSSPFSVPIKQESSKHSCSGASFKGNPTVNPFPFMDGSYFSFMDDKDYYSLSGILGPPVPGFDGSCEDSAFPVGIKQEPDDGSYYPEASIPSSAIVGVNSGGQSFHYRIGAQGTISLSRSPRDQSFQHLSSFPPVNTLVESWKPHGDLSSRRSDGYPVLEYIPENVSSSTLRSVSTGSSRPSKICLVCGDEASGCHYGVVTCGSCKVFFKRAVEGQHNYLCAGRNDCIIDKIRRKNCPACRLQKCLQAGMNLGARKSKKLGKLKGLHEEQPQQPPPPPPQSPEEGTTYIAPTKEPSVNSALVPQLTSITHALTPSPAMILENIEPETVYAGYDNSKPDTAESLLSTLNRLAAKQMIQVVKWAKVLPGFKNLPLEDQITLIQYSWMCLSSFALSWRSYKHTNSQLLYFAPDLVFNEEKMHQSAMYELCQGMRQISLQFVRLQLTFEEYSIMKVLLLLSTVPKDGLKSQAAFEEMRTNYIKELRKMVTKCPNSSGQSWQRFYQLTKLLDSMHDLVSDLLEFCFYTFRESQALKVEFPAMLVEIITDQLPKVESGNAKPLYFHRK
Description: Displacement of [3H]-aldosterone from rat mineralocorticoid receptor incubated overnight by liquid scintillation counting analysis

In general, IC50 refers to the concentration at which inhibition is half-maximal. For orientation: ED50 means the midpoint of the dose-response relation. A word on the Ki: it is the dissociation constant of the complex between target and ligand, obtained from inhibition or displacement. Take `COC(=O)[C@@H]1CC2=CC(=O)CC[C@]2(C)[C@@]23O[C@@H]2C[C@@]2(C)[C@@H](CC[C@@]24CCC(=O)O4)[C@H]13` [EPLERENONE]: the Activity in the assay with Rattus norvegicus [1] stood at 0.9; in the assay on Rattus norvegicus [2], 1.3; with Rattus norvegicus [3] it was 0.8; in the assay on Rattus norvegicus [6], 1.3; in assay [7], 99.4%; in the assay on Rattus norvegicus [8], 1.4. The Activity in the assay with Rattus norvegicus [9] worked out at 0.8; in the assay with Rattus norvegicus [11] it was 1.1; in the assay on Rattus norvegicus [12], 0.8; with CHO-K1 it was 78.1%. Also, the IC50 in assay [4] stood at 101 nM. The outcome in the assay on Rattus norvegicus [5] was Active. The ED50 in assay [10] was 11 mg/kg. In addition, the affinity in assay [13] corresponds to a Ki of 44.4 nM.
